Experimental data: US5342612A, “Compositions for the treatment of mammalian diseases” (priority 1991, dated 1994)

Key:
[1] = system: S. aureus mastitis (Newbould 305); test: r-BoIL-2 formulated in poloxamer 407 NF as a therapeutic for S. aureus mastitis (Example 6); format: in vivo, Holstein-Fresian dairy cattle
Method: This experiment compares r-BoIL-2 formulated in poloxamer 407 NF, against CEFA-LAK® (cephapirin in a commercial formulation), Na cephapirin (in PBS) and r-BoIL-2 in combination with Na cephapirin (in PBS) as potential therapeutics for S. aureus mastitis. The study employs the following materials: recombinant bovine interleukin-2 (r-BOIL-2, Immunex Corporation, Seattle, Wash.); CEFA-LAK® (200 mg cephapirin as cephapirin sodium in a commercially packaged dose, Bristol-Meyers, Evansville, Ind.); 200 mg Na cephapirin dissolved in 10.0 mL sterile saline; PLURONIC® ACID F127 (poloxamer 407 NF, BASF Corporation, Parsippany, N.J.).
The treatment of Holstein-Fresian dairy cattle is run over three days. There are four treatment groups as follows:
Treatment 1=2 infusions consisting of 200 mg cephapirin (as CEFA-LAK®),at 0 and 12 hours.
Treatment 2=3 infusions consisting of 10 mg r-BoIL-2/poloxamer 407 NF at 0, 24 and 48 hours.
Treatment 3=3 infusions consisting of 3.3 mg r-BoIL-2 in 10 mL PBS at 0, 24 and 48 hours, followed by 2 infusions of 200 mg Na cephapirin in 10 mL PBS at 0 and 12 hours.
Treatment 4=2 infusions consisting of 200 mg Na cephapirin in 10 mL PBS at 0 and 12 hours.
All mammary glands to be infused have been infected with S. aureus (Newbould 305). Infusions are made into the teat cistern of a milked out mammary gland after the prescribed milking. […]

[2] = system: S. aureus; test: Potentiation of lysostaphin bactericidal activity (minimum bactericidal concentration assay, survival of S. aureus); format: cell-based, Staphylococcus aureus; details: 18 h
Method: Preparation of 50% glycerol and 15% poloxamer 407 NF plus lysostaphin is as follows: The lysostaphin stock of 2.5 mg/mL is thawed and filtered through a 0.22μ filter. [formula]
In a similar fashion, triacetin solutions are also prepared.
Mueller-Hinton Broth containing lysostaphin is prepared as above. Penicillin in Mueller-Hinton Broth is prepared to serve as a control. Starting with a frozen 2.5 mg/mL stock solution the penicillin is diluted as follows: 400 μl of 2.5 mg/mL is placed in 600 μl of Mueller-Hinton Broth to yield a 1000 μg/mL solution. Added to 3744 μl of Mueller-Hinton Broth is 256 μl of the 1000 μg/mL solution to yield a 64 μg/mL solution.
Placed in sterile tubes are 2 mL of the vehicle and lysostaphin; Mueller-Hinton Broth plus lysostaphin; and Mueller-Hinton Broth plus penicillin. Serial two-fold dilutions are performed by hand using 1 mL of the appropriate vehicle as the diluent. Lysostaphin and penicillin dilutions range from 64 μg/mL to 0.25 μg/mL. All combinations are done in duplicate. The Staphylococcus aureus is grown for 5 hours in 5 mL of TSB and 0.1 mL is removed and placed in 9.9 mL of saline. Each tube is inoculated with 100 μl of the diluted culture. Plate counts are performed on the inoculum. All tubes are incubated for 18 hours at 37° C. with constant agitation. Following incubation, each dilution of lysostaphin in the vehicles or Mueller-Hinton Broth and penicillin in Mueller-Hinton Broth is diluted in phosphate buffered saline to 10^-2, 10^-4 and 10^-6.
Plated on a TSA with 10% sheep blood is 100 μl of the undilute and of each dilution. The plates are inverted and incubated for 18 hours. Following incubation, the number of colonies on each plate is counted.
The vehicles which inhibit the growth or are moderately bactericidal to S. aureus by themselves are unable to be evaluated using the MIC procedure. For these vehicles a minimum bactericidal concentration assay (MBC) is performed. This assay in conjunction with the previous MIC data distinguish bacteriostatic effects versus bactericidal effects of the vehicles. Various formulations are mixed with lysostaphin at a final concentration of 32 μg/mL. Ten, serial two- or four-fold dilutions of the lysostaphin are performed in the vehicle and each tube inoculated with a 2-6 x's 106 S. aureus CFU's (bacterial colony-forming units). Samples are removed after 18 hours and plated on blood agar plates.

[3] = system: S. aureus; test: Potentiation of bacteriostatic activity of lysostaphin by vehicles (checkered analysis); format: cell-based, Staphylococcus aureus; details: for Vehicle Conc. w/Max. Potentiation (%): with r-lysostaphin; for Potentiation Index Compared to Lysostaphin: M.I.C. of r-lysostaphin in saline / M.I.C. in formulation with the vehicle; for Character of potentiation: in words (footnotes, text)
Source text: In order to identify the nontoxic formulations for mammalian use, toxicity is employed as a method to eliminate direct bactericidal effects on the S. aureus, as well as potential toxic effects on the target animal. Compounds are formulated with r-lysostaphin at concentrations below toxic effects and compared to the bacteriostatic activity of r-lysostaphin in a saline formulation. Some compounds potentiate r-lysostaphin bacteriostatic activity by as much as 300-1000 fold.
Several surfactants, detergents, oils, emollients and membrane solubilizers are chosen as representative of various classes of compounds which may affect protein activity. These vehicles are then evaluated for toxicity and potentiation of the bacteriostatic effects of r-lysostaphin on S. aureus according to the methods described in the foregoing examples. […] Secondly, the vehicles are subjected to the toxicity test on murine cells in vitro. Viable cells are evaluated by trypan blue exclusion and normalized to an untreated control. Thereafter, dairy cattle are infused through the teat canal with various concentrations of the vehicle to make a determination of the irritation potential after intramammary infusion as a measure of mammalian toxicity. Milk samples are collected after infusion of said vehicles and the somatic cell count is determined. The Stimulation Index equals the post-infusion SCC divided by the pre-infusion SCC. The vehicles showing minimal toxicity to S. aureus and mammalian cells in vitro and in vivo are subsequent candidates for evaluation in the in vivo potentiation trials.
Various vehicle combinations are tested in a standard checkered analysis which simultaneously varies the concentration of both parameters to examine the individual contribution of each. Vehicles are all compared to r-lysostaphin in a saline solution, i.e., the potentiation index. […] Glycerol and triacetin, while only potentiating the activity of r-lysostaphin 6-8 fold, is manifested by bactericidal effects (see above Table IV).

[4] = system: Staphylococcus aureus mastitis (Newbould 305); test: Efficacy of lysostaphin formulated in vehicles as intramammary infusion against Staphylococcus aureus mastitis; format: in vivo, bovine (dairy cows)
Source text: This experiment examines the ability of various lysostaphin formulations to eliminate S. aureus infections in the bovine mammary gland and compares the formulations with the testing of lysostaphin in a peanut oil-gel matrix, similar to that used in the commercial product CEFA-LAK®, which is used to treat mastitis in lactating dairy cows.
Lysostaphin is formulated in three vehicles: 15% w/v poloxamer 407 NF, 50% w/v glycerol or 10% w/v triacetin. Lysostaphin is also formulated in a peanut oil-gel matrix. These formulations are infused into the bovine mammary gland and the ability of these combinations to exact a biological response, either by curing the infection or by clearing the mammary gland temporarily of S. aureus, are assessed.
Recombinant lysostaphin is suspended in 10.0 mL of peanut oil vehicle or dissolved in 60.0 mL of appropriate sterile vehicle (sPBS) at a concentration of 10.0 mg/mL or 1.67 mg/mL, respectively. Each of 15% poloxamer 407 NF (PLURONIC® ACID F127, a polyoxyethylene-polyoxypropylene derivative, BASF Corporation, Parsippany, N.J.); 50% glycerol (Sigma Chemical Co., St. Louis, Mo.); and 10% triacetin (glyceryl triacetate, Sigma Chemical Co., St. Louis, Mo.) are prepared in sterile phosphate buffered saline.
Staphylococcus aureus infections of the mammary gland provide an excellent model system for evaluating therapeutic efficacy of a variety of pharmaceutical and biological agents for many infectious diseases of mammals. Therefore, experimental infections are established with S. aureus (strain Newbould 305). All mammary glands to be inoculated are free of pathogens and have individual quarter somatic cell counts (SCC) less than 200,000 cells/mL of milk. Inoculum is prepared from a four-hour culture grown in trypticase soy broth and diluted. Inoculations are made by infusion of 1.0 mL diluted culture containing 90 colony forming units of S. aureus (Newbould 305) into the teat cistern of a milked-out mammary quarter. Quarters which fail to establish an infection after six days from initial inoculation are reinfected.
Prepared in PBS is 50% glycerol and the solution is then sterile filtered (0.45μ). Poloxamer 407 NF is mixed overnight and prepared similarly. A 10% triacetin solution is prepared aseptically in sterile PBS. Appropriate amounts of lysostaphin is added so the final concentration is 1.67 mg/mL. All preparations are in a total volume of 60.0 mL and made the day of the infusion. All solutions are sterile filtered through a 0.45μ filter.
Duration of treatment: 3 consecutive PM milkings
Quarters are randomly assigned to one of six treatment groups. All quarters are infused with the appropriate vehicle (60.0 mL) with or without lysostaphin over three consecutive PM milkings. […]

[5] = Toxicosis following r-BoIL-2 and r-BoIL-1 formulated infusions; format: in vivo, dairy cattle; details: in words
Source text: Daily observations of dairy cattle are made for any signs of toxicosis following the beginning of treatment.

[6] = lysostaphin (or penicillin) 1 μg/mL
[7] = lysostaphin (or penicillin) 4 μg/mL

With `CC(=O)OCC1=C(C(=O)O)N2C(=O)[C@@H](NC(=O)CSc3ccncc3)[C@H]2SC1` [Cephapirin] the “Response (%)” value ([1]; CEFA-LAK 200 mg x2, r-BoIL-2/F127 10 mg x3, r-BoIL-2 3.3 mg x3 + cephapirin 200 mg x2, cephapirin 200 mg x2, quarters culture negative at first sampling) was 85% and the “Cure (%)” value ([1]; same doses, days eight to fifteen following final treatment) was 23.1%.

For `CC1(C)S[C@@H]2[C@H](NC(=O)Cc3ccccc3)C(=O)N2[C@H]1C(=O)O` [Penicillin, reference compound], the “Survival of S. aureus CFU (Log 10) in Vehicles” value (“Survival … (Log 10) in Vehicles” for short) ([2]; lysostaphin (or penicillin) 0.5 μg/mL) was 4.2 CFU (Log 10), the “Killing of S. aureus (footnote class)” value [2, 6] was “^3 (Greater than 99.99% killing of S. aureus)” and the “Survival … (Log 10) in Vehicles” value [2, 6] was 2.5 CFU (Log 10). The “Killing of S. aureus (footnote class)” value [2, 7] was “^3 (Greater than 99.99% killing of S. aureus)”, the “Survival … (Log 10) in Vehicles” value [2, 7] was 3.1 CFU (Log 10) and the “Survival … (Log 10) in Vehicles” value ([2]; lysostaphin (or penicillin) 8 μg/mL) was 0 CFU (Log 10). For the same molecule, the “Killing of S. aureus (footnote class)” value ([2]; penicillin 0.5 μg/mL) was “^3 (Greater than 99.99% killing of S. aureus)”.

For `CCCCCCCC(=O)N(C)C[C@H](O)[C@@H](O)[C@H](O)[C@H](O)CO` [Octanoyl-n-methylglucamid], the “Vehicle Conc. w/Max. Potentiation (%)” value [3] was 0.31%.

With `CCCCCCCCCCCCO[C@@H]1O[C@H](CO)[C@@H](O[C@H]2O[C@H](CO)[C@@H](O)[C@H](O)[C@H]2O)[C@H](O)[C@H]1O` [Dodecyl B-D-maltosid] the “Vehicle Conc. w/Max. Potentiation (%)” value [3] was 0.0024%.

With `CCCCCCCCCCCCOC1O[C@H](CO)[C@@H](O)[C@H](O)[C@H]1O` (stereo partly drawn) [n-Dodecylglucosid] the “Potentiation Index Compared to Lysostaphin” value [3] was 1025.0, the Character of potentiation [3] was “Potentiation is eliminated when diluted fourfold” and the “Vehicle Conc. w/Max. Potentiation (%)” value [3] was 0.078%.

In the case of `OCC(O)CO` [Glycerol], the “% Cures” value ([4]; 100 mg lysostaphin infusions on three consecutive days) is reported as 25%, the “Effect on potentiating the in vivo efficacy of lysostaphin” value ([4]; in words) is reported as “Neither glycerol nor triacetin (both have a cure rate of 25%) has any significant effect” and the Character of potentiation [3] is reported as “Potentiates the bactericidal activity of rlysostaphin”. For the same molecule, the “Vehicle Conc. w/Max. Potentiation (%)” value [3] was 50.0%.

For `CCCCCCCCCC(=O)N(C)C[C@H](O)[C@@H](O)[C@H](O)[C@H](O)CO` [Decanoyl-n-methylglucamid], the “Vehicle Conc. w/Max. Potentiation (%)” value [3] was 0.078%.

With `CCCCCCCCOC1O[C@H](CO)[C@@H](O)[C@H](O)[C@H]1O` (stereo partly drawn) [n-Octylglucosid] the “Potentiation Index Compared to Lysostaphin” value [3] was 1.0 and the “Vehicle Conc. w/Max. Potentiation (%)” value [3] was 0.039%.

For `CC(O)CO` (stereo not drawn) [Propylene Glycol], the “Vehicle Conc. w/Max. Potentiation (%)” value [3] was 0.195%.

B1: r-BoIL-2: recombinant bovine interleukin-2, Immunex Corporation, Seattle, Wash. (protein, UniProt P05016 21-155, looked up)
Interleukin-2: APTSSSTGNTMKEVKSLLLDLQLLLEKVKNPENLKLSRMHTFDFYVPKVNATELKHLKCLLEELKLLEEVLNLAPSKNLNPREIKDSMDNIKRIVLELQGSETRFTCEYDDATVNAVEFLNKWITFCQSIYSTMT
In the case of B1, the “Observable signs of toxicosis / adverse clinical signs” value ([5]; compared with PBS carrier) is reported as “A decrease of adverse clinical signs are observed” and the “Side effects compared with r-BoIL-2 in PBS” value ([5]; in polyoxypropylene-polyoxyethylene block copolymer) is reported as “substantially less detrimental to an animal than infusions of r-BoIL-2 in sterile phosphate buffered saline”.
